{"source": "ChEMBL document CHEMBL3886567", "about": "“Fused tricyclic compounds as Raf kinase inhibitors” (2016)", "key": {"[1]": {"molecular_target": "RAF proto-oncogene serine/threonine-protein kinase (Homo sapiens, UniProt P04049, Y340D/Y341D)", "sequence (P04049 whole entry Y340D/Y341D)": "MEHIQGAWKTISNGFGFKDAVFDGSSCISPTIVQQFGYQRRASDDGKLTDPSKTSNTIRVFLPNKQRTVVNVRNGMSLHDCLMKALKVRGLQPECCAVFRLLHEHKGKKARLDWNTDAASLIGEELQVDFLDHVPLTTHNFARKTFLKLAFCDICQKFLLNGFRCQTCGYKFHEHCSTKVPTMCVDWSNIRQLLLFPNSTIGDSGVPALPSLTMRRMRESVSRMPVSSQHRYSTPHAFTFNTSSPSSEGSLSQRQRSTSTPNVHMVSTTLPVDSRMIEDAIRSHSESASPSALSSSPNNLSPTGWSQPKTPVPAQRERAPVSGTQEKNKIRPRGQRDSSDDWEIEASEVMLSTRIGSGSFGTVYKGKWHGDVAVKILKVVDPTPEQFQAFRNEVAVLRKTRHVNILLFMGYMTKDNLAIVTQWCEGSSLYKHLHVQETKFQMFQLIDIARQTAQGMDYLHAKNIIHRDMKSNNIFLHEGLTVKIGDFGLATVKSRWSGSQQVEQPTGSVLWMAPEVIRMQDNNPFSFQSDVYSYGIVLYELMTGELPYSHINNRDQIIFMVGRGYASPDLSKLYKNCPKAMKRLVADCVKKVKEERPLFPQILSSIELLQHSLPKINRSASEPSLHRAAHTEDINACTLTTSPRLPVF", "experiment": "(§1) Raf IC50 Assay: Compounds disclosed herein were tested against B-Raf (V600E) (PV3849, from Invitrogen) or C-Raf (Y340D/Y341D) (PV3805, from Invitrogen) in a time-resolved fluorescence energy transfer assay. The assay was carried out in reactions (10 uL) containing 0.0625 nM B-Raf or 0.5 nM C-Raf, 25 mM Tris pH7.4, 10 mM MgCl2, 0.5 mM EGTA, 0.5 mM […], 5 mM beta-glycerophosphate, 0.01% Triton X-100, 2.5 mM DTT, 0.1% BSA, 0.1 mM ATP, 13.7 nM GST-tagged MEK1 (Full-length protein with K97R mutation, recombinant protein purified from bacterial expression system) and 0-5 uM compounds disclosed herein (final concentration of 1% DMSO). The enzyme was incubated with the compounds at room temperature for 60 minutes and the reactions were initiated by the addition of ATP and GST-MEK1. After incubating at room temperature for 60 minutes, an equal volume of stop buffer containing 25 mM Tris pH7.4, 400 mM KF, 50 mM EDTA, 0.01% BSA, 0.01% Triton X-100, 1 test of Eu3+ Cryptate-conjugated rabbit polyclonal antibody anti-Phospho MEK1/2 (Ser217/221) and 1 test of d2-conjugated mouse monoclonal antibody anti-glutathione S-transferase was added to stop the reactions. Plates were sealed and incubated at room temperature for 2 hours, and then the TR-FRET signals were read on BMG PHERAstar FS instrument. The IC50 for each compound was calculated by non linear regression by Graphpad Prism software."}, "[2]": {"molecular_target": "Serine/threonine-protein kinase B-raf (Homo sapiens, UniProt P15056, V600E)", "sequence (P15056 2-766 V600E limits assumed)": "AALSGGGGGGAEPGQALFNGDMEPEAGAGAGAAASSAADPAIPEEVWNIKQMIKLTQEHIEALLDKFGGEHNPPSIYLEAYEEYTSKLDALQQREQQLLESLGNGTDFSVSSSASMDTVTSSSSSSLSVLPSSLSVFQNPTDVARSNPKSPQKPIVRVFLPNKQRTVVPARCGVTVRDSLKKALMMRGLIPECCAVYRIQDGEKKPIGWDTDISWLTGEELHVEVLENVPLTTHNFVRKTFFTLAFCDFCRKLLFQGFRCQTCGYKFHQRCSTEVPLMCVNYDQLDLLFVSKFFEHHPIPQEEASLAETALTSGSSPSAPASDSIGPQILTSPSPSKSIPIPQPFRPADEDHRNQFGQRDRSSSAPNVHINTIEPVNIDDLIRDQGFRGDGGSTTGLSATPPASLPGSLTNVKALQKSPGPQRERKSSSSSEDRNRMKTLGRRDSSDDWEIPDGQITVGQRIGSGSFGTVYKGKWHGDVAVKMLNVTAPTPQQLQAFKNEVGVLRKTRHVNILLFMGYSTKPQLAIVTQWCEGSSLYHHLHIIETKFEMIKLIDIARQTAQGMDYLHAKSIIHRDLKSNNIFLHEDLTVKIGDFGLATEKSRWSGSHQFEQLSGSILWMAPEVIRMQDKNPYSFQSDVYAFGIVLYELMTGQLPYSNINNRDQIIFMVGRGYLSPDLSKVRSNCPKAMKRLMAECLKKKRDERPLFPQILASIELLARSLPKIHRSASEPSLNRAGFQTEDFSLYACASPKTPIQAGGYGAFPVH", "experiment": "as §1"}}, "data": [{"smiles": "O=C1CCc2c(Oc3ccc4c(c3)C3C(O4)C3c3nc4ccc(C(F)(F)F)cc4[nH]3)ccnc2N1", "note": "(racemic)", "values": [{"measurement": "IC50", "setting": "[1]", "value": 1.4, "unit": "nM"}, {"measurement": "IC50", "setting": "[2]", "value": 7.2, "unit": "nM"}]}, {"smiles": "O=C1CCc2c(Oc3ccc4c(c3)C3C(O4)C3c3nc4ccc(-c5ccccc5)cc4[nH]3)ccnc2N1", "note": "(racemic)", "values": [{"measurement": "IC50", "setting": "[1]", "value": 81, "unit": "nM"}, {"measurement": "IC50", "setting": "[2]", "value": 232, "unit": "nM"}]}, {"smiles": "O=C1CCc2c(Oc3ccc4c(c3)C3C(C4)C3c3nc4ccc(C(F)(F)F)cc4[nH]3)ccnc2N1", "note": "(racemic)", "values": [{"measurement": "IC50", "setting": "[1]", "value": 12, "unit": "nM"}, {"measurement": "IC50", "setting": "[2]", "value": 72, "unit": "nM"}]}, {"smiles": "O=C1CCc2c(Oc3ccc4c(c3)C3C(O4)C3c3nc4cccc(Cl)c4[nH]3)ccnc2N1", "note": "(racemic)", "values": [{"measurement": "IC50", "setting": "[1]", "value": "< 0.25", "unit": "nM"}, {"measurement": "IC50", "setting": "[2]", "value": 16, "unit": "nM"}]}, {"smiles": "O=C1CCc2c(ncc(Cl)c2Oc2ccc3c(c2)C2C(O3)C2c2nc3ccc(C(F)(F)F)cc3[nH]2)N1", "note": "(racemic)", "values": [{"measurement": "IC50", "setting": "[1]", "value": 432, "unit": "nM"}, {"measurement": "IC50", "setting": "[2]", "value": "> 1000", "unit": "nM"}]}, {"smiles": "O=C1CCc2c(Oc3ccc4c(c3)C3C(O4)C3c3nc4cc(Cl)c(C(F)(F)F)cc4[nH]3)ccnc2N1", "note": "(racemic)", "values": [{"measurement": "IC50", "setting": "[1]", "value": 5, "unit": "nM"}]}]}
